Literature values in patent US20060275223A1, “Erythritol compositions for teeth and gums” (priority 2005, published 2006).

Conditions: erythritol comprises 20% of the diet

diarrhea: does not cause diarrhea
SMILES: OC[C@@H](O)[C@@H](O)CO [erythritol]
